Laboratory results as given in patent publication US20110177943A1, “Benzyl-Substituted Thiadiazolyloxyphenylamidinium Salts” (priority 2009, published 2011).
Counter-ions that a name gives are not always drawn. Like-named read-outs stand apart in the source and are kept apart here. Marks after values point to notes of the source that are not given here.

Columns and labels:
[1] = logP by HPLC on reversed-phase columns (EEC directive 79/831 Annex V.A8); assay type: physicochemical; conditions: for chromatographic logP: [b] LC-MS determination in the acidic range at pH 2.7, 0.1% aqueous formic acid and acetonitrile, read-out: log p
Method: Calibration was carried out using unbranched alkan-2-ones (having from 3 to 16 carbon atoms) with known logP values (the logP values were determined by the retention times using linear interpolation between two successive alkanones).

Sphaerotheca fuliginea = conditions: cucumber, protective, active compound concentration 500 ppm, evaluation 7 days after inoculation
Method: Sphaerotheca Test (cucumber)/protective
1 day after the treatment, the plants are inoculated with a spore suspension of Sphaerotheca fuliginea. The plants are then placed in a greenhouse at a relative atmospheric humidity of 70% and a temperature of 23° C.
Evaluation is carried out 7 days after the inoculation.

Phakopsora pachyrhizi = experiment: Phakopsora Test (soya beans)/Protective; assay type: in vivo; conditions: protective, active compound concentration 100 ppm, evaluation 11 days after inoculation
Method: Phakopsora Test (soya beans)/Protective
One day after spraying, the plants are inoculated with an aqueous spore suspension of the soya bean rust pathogen (Phakopsora pachyrhizi). The plants are placed in a greenhouse at 20° C. and a rel. atmospheric humidity of 80%.
Evaluation is carried out 11 days after the inoculation.

Fusarium proliferatum = experiment: Production of Fumonisin FB1 by Fusarium proliferatum; assay type: cell-based; conditions: 120 h, read-out: inhibition of fumonisin FB1 production
Method: Production of Fumonisin FB1 by Fusarium proliferatum
The compounds were tested in microtitre plates at 5 concentrations of from 0.08 μM to 50 μM in a fumonisin-inducing liquid medium (0.5 g of malt extract, 1 g of yeast extract, 1 g of bactopeptone, 20 g of fructose, 1 g of KH2PO4, 0.3 g of MgSO47 H2O, 0.3 g of KCl, 0.05 g of ZnSO47 H2O and 0.01 g of CuSO4×5 H2O per litre) with DMSO (0.5%). Inoculation was carried out using a concentrated spore suspension of Fusarium proliferatum at a final concentration of 2000 spores/ml.
The plate was incubated at 20° C. and high atmospheric humidity for 5 days.
At the beginning and after 5 days, the OD was measured at OD620 (repeated measurements: 3×3 measurements per well) to calculate the inhibition of growth.
After 5 days, a sample of the liquid medium was removed and diluted 1:1000 with 50% strength acetonitrile. The concentration of FB1 of the diluted samples was analysed by HPLC-MS/MS, and the measured values were used to calculate the inhibition of fumonisin FB1 production compared to an active compound-free control. […]

In the case of `CCN(C)C=Nc1cc(C)c(Oc2nc(Cc3ccc(Cl)cc3)ns2)cc1C.O=S(=O)(O)O` [Example 1, N′-(4-{[3-(4-chlorobenzyl)-1,2,4-thiadiazol-5-yl]oxy}-2,5-dimethylphenyl)-N-ethyl-N-methylimidoformamidesulphate], the log p ([1]; pH 2.7) was 1.88^[b].

“N′-(4-{[3-(4-chlorobenzyl)-1,2,4-thiadiazol-5-yl]oxy}-2,5-dimethylphenyl)-N-ethyl-N-methylimido-formamide-1,2-benzothiazol-3(2H)-one 1,1-dioxide [Example 4]” showed an efficacy (Sphaerotheca fuliginea) of no less than 70%.

`Br.CCN(C)C=Nc1cc(C)c(Oc2nc(Cc3ccc(Cl)cc3)ns2)cc1C` [Example 2, N′-(4-{[3-(4-chlorobenzyl)-1,2,4-thiadiazol-5-yl]oxy}-2,5-dimethylphenyl)-N-ethyl-N-methylimidoformamide hydrobromide] gave a chromatographic logP ([1]; reversed-phase HPLC column) of 1.83, an efficacy (Phakopsora pachyrhizi) of no less than 80% and an inhibition at 50 µM (Fusarium proliferatum) greater than 80%.

In the case of `CCN(C)C=Nc1cc(C)c(Oc2nc(Cc3ccc(Cl)cc3)ns2)cc1C` [Example 3, N′-(4-{[3-(4-Chlorobenzyl)-1,2,4-thiadiazol-5-yl]oxy}-2,5-dimethylphenyl)-N-ethyl-N-methylimidoformamide hydrochloride (1:1)], the chromatographic logP [1] was 2.03.
